{
  "source": "patent US20240108740A1",
  "about": "“THERAPEUTIC COMPOSITIONS INCLUDING SPN10 AND USES THEREOF” (Stealth BioTherapeutics Inc., priority 2022, published 2024)",
  "key": {"[1]": {"system": "CD-1 mice", "experiment": "Example 7: streptozotocin (STZ)-induced diabetes, renal damage", "assay_type": "in vivo, mouse", "conditions": "STZ-treated mice", "description": "Streptozotocin (STZ) will be used to induce diabetes in mice. […] groups of CD-1 mice will be studied: Group I—no STZ treatment; Group II—STZ (50 mg/kg, i.p.) will be given once daily for 5 days; Group III—STZ (50 mg/kg, i.p.) will be given once daily for 5 days, +peptide conjugates (3 mg/kg, i.p.) will be given once daily for 16 days; Group IV—STZ (50 mg/kg, i.p.) will be given once daily for 5 days, +aromatic-cationic peptides (an equivalent molar dose of aromatic-cationic peptide based on the concentration of the aromatic-cationic peptide administered in the peptide conjugate treatment group) will be given once daily for 16 days; Group V—STZ (50 mg/kg, i.p.) will be given once daily for 5 days, +SPN10 (an equivalent molar dose of SPN10 based on the concentration of SPN10 administered in the peptide conjugate treatment group) will be given once daily for 16 days; Group VI—STZ (50 mg/kg, i.p.) will be given once daily for 5 days, +SPN10(s) in combination with aromatic-cationic peptides (e.g., an equivalent molar dose of SPN10 based on the concentration of SPN10 administered in the peptide conjugate treatment group and an equivalent molar dose of aromatic-cationic peptide based on the concentration of aromatic-cationic peptide administered in the peptide conjugate treatment group) will be given once daily for 16 days. It is anticipated that STZ treatment will result in a progressive increase in blood glucose. Animals will be sacrificed after 3 weeks and kidney tissues preserved for histopathology. Kidney sections will be examined by Periodic Schiff (PAS) staining for renal tubular brush border.\nIt is anticipated that STZ treatment will induce significant apoptosis in tubular epithelial cells. Kidney sections will be examined for apoptosis using a TUNEL assay as described herein. It is anticipated that kidney sections from mice treated with STZ will show a large number of apoptotic nuclei in the proximal tubules, compared to non-STZ treated controls."}, "[2]": {"system": "isolated mouse liver mitochondria", "experiment": "Example 20: spontaneous and antimycin-induced H2O2 production by isolated mitochondria", "description": "Livers will be harvested from mice, homogenized in ice-cold buffer, and centrifuged at 13800×g for 10 min. The pellet will be washed once, re-suspended in 0.3 mL of wash buffer, and placed on ice until use. H2O2 will be measured using luminol chemiluminescence as described previously (Li, et al., Biochim. Biophys. Acta 1428, 1-12 (1999). 0.1 mg mitochondrial protein will be added to 0.5 mL potassium phosphate buffer (100 mM, pH 8.0) in the presence of vehicle, peptide conjugates, aromatic-cationic peptides, or SPN10(s) with or without aromatic-cationic peptides. 25 mM luminol and 0.7 IU horseradish peroxidase will be added, and chemiluminescence will be monitored with a Chronolog Model 560 aggregometer (Havertown, PA) for 20 minutes at 37° C. The amount of H2O2 produced will be quantified as the area under the curve (AUC) over 20 min, and all data will be normalized to AUC produced by mitochondria alone."}, "[3]": {"system": "Sprague Dawley rats", "experiment": "Example 45: hypermetabolism after burn injury (indirect calorimetry)", "assay_type": "in vivo, rat", "conditions": "30% total body surface area burn; IV every 12 hours for three days", "description": "Sprague Dawley rats will be randomized into the following groups; sham-burn (SB), burn with saline treatment (B), burn with peptide conjugate-treatment (BP), burn with aromatic-cationic peptides (BP2), burn with SPN10(s) (BP3), burn with SPN10(s)+aromatic-cationic peptides (BP4). Catheters will be surgically placed into jugular vein and carotid artery. Band BP, BP2, BP3 and BP4 animals will receive 30% total body surface area full thickness burns by immersing the dorsal part into 100° C. water for 12 seconds with immediate fluid resuscitation. […] The EE of the animals will be monitored for 12 hours in a TSE Indirect Calorimetry System (TSE Co., Germany)."}, "[4]": {"system": "human retinal epithelial cells (HREC)", "experiment": "Example 55: high glucose-induced injury", "assay_type": "cell-based", "description": "Methods of HREC culture useful in the studies of the present technology are known. See generally, Li, et al., Clin. Ophthal. Res. 23:20-2 (2005); Premanand, et al., Invest. Ophthalmol. Vis. Sci. 47:2179-84 (2006). Briefly, HREC cells will be cultured under one of these conditions: 1) normal control; 2) 30 mM glucose; 3) 30 mM glucose+peptide conjugates; 4) 30 mM glucose+an aromatic-cationic peptide; 5) 30 mM glucose+SPN10; 6) 30 mM glucose+SPN10+aromatic-cationic peptides. Survival of HRECs in high glucose co-treated with various concentrations of peptide conjugates (10 nM, 100 nM, 1 μM, 10 μM) will be measured by flow cytometry using Annexin V. See generally, Koopman, et al., Blood 84:1415 (1994); Homburg, et al., Blood X5: 532 (1995); Vermes, et al. J. Immunol. Meth. 184:39 (1995); Fadok, et al., J. Immunol. 148:2207 (1992).\nThe survival of HRECs in high glucose co-treated with peptide conjugates, aromatic-cationic peptides, or SPN10(s) with or without aromatic-cationic peptides will be tested at 24 hours and 48 hours.\nIt is expected that glucose (30 mmol/L) will induce cytochrome c release from the mitochondria of HRECs. Fixed HRECs will be immunolabeled with a cytochrome c antibody and a mitochondrial specific protein antibody (HSP60)."}},
  "note": "Residues, ends and D or L forms follow the SMILES beside them.",
  "data": [
    {"smiles": "N=C(N)NCCC[C@H](NC(=O)[C@@H](N)Cc1c[nH]c2ccccc12)C(=O)N[C@@H](Cc1c[nH]c2ccccc12)C(=O)N[C@@H](CCCCN)C(N)=O", "note": "[SPN10, H-L-Trp-L-Arg-L-Trp-L-Lys-NH2] (H-WRWK-NH2)", "values": [
      {"measurement": "apoptotic cells in the proximal tubule (TUNEL)", "setting": "[1]", "value": "dramatically reduce apoptotic cells"},
      {"measurement": "tubular epithelial nuclei", "setting": "[1]", "value": "appear normal"},
      {"measurement": "loss of brush border in proximal tubules (PAS)", "setting": "[1]; daily treatment", "value": "prevent the loss of brush border"},
      {"measurement": "spontaneous production of H2O2", "setting": "[2]", "value": "dose-dependently reduce the spontaneous production of H2O2"},
      {"measurement": "production of H2O2 induced by antimycin", "setting": "[2]; antimycin", "value": "dose-dependently reduce the production of H2O2 induced by antimycin"},
      {"measurement": "increase in energy expenditure (EE) after burn", "setting": "[3]", "value": "attenuate or prevent this effect"},
      {"measurement": "production of ROS", "setting": "[4]; 30 mM glucose", "value": "reduce the production of ROS"},
      {"measurement": "survival of HRECs in high glucose (Annexin V)", "setting": "[4]; 30 mM glucose, 24 hours and 48 hours", "value": "significantly improved"},
      {"measurement": "glucose-induced release of cytochrome c from mitochondria to cytoplasm", "setting": "[4]; 30 mmol/L glucose, 24 or 48 hours", "value": "prevent or attenuate this effect"},
      {"measurement": "loss of mitochondrial membrane potential by high glucose (TMRM)", "setting": "[4]; 24 or 48 hours", "value": "prevent or attenuate this effect"}
    ]}
  ]
}
